Measured values as given in PubChem BioAssay AID322 (DTP/NCI, 2004).
Values joined by “and” are separate entries in the source; they are usually repeats but may differ in a detail not shown here. Equal entries are not always repeated. Toxic doses and inconclusive results are not listed.

Test system: CD2F1 mice, P388/ADR leukemia ip, median survival T/C
Assay: NCI In Vivo Anticancer Drug Screen. Data for tumor model P388 Leukemia resistant to Adriamycin; NSC 123127, Developed at Scr 08 (intraperitoneal) in CD2F1 (CDF1) mice
Details: endpoint: median survival time, higher = longer survival
Description: The antitumor activity of compounds was measured in mice bearing transplantable tumors. Survival or tumor size were measured and the results are expressed as the measurement made in the treated group (T) divided by the measurement made in the vehicle treated control group (C). The tumor model used in this assay is P388 Leukemia resistant to Adriamycin; NSC 123127, Developed at Scr 08 (intraperitoneal) in CD2F1 (CDF1) mice

[1] = dose: 30.0 mg/kg/injection, schedule: Q01DX009 (ip), vehicle: saline
[2] = dose: 67.0 mg/kg/injection, schedule: Q01DX009 (ip), vehicle: saline
[3] = dose: 150.0 mg/kg/injection, schedule: Q01DX009 (ip), vehicle: saline

Nc1ncn(C2OC(CO)C(O)C2O)c(=O)n1 (stereo not given)
T/C [1]: 232 % of control and 246 % of control
T/C (dose: 44.0 mg/kg/injection, schedule: Q01DX005 (ip), vehicle: saline): 183 % of control
T/C (dose: 44.0 mg/kg/injection, schedule: Q01DX009 (ip), vehicle: saline): 248 % of control and 261 % of control
T/C (dose: 67.0 mg/kg/injection, schedule: Q01DX005 (ip), vehicle: saline): 189 % of control
T/C [2]: 253 % of control and 280 % of control
T/C (dose: 100.0 mg/kg/injection, schedule: Q01DX005 (ip), vehicle: saline): 210 % of control
T/C (dose: 100.0 mg/kg/injection, schedule: Q01DX009 (ip), vehicle: saline): 263 % of control and 270 % of control
T/C (dose: 150.0 mg/kg/injection, schedule: Q01DX005 (ip), vehicle: saline): 206 % of control
T/C [3]: 277 % of control and 296 % of control
T/C (dose: 200.0 mg/kg/injection, schedule: Q01DX005 (ip), vehicle: saline): 207 % of control

O=C(O)Cc1cccc2c(=O)cc(-c3ccccc3)oc12
T/C (dose: 24.12 mg/kg/injection, schedule: Q01DX005 (ip), vehicle: saline): 102 % of control
T/C [1]: 114 % of control
T/C (dose: 30.0 mg/kg/injection, schedule: Q01DX009 (ip), vehicle: sodium bicarbonate): 124 % of control
T/C (dose: 40.2 mg/kg/injection, schedule: Q01DX005 (ip), vehicle: saline): 118 % of control
T/C (dose: 44.0 mg/kg/injection, schedule: Q01DX009 (ip), vehicle: sodium bicarbonate): 167 % of control
T/C (dose: 60.0 mg/kg/injection, schedule: Q04DX002 (ip), vehicle: sodium bicarbonate): 118 % of control
T/C [2]: 187 % of control
T/C (dose: 67.0 mg/kg/injection, schedule: Q01DX009 (ip), vehicle: sodium bicarbonate): 187 % of control and 237 % of control and 245 % of control
T/C (dose: 90.0 mg/kg/injection, schedule: Q04DX002 (ip), vehicle: sodium bicarbonate): 118 % of control
T/C (dose: 100.0 mg/kg/injection, schedule: Q01DX009 (ip), vehicle: sodium bicarbonate): 207 % of control and 240 % of control and 291 % of control
T/C (dose: 111.67 mg/kg/injection, schedule: Q01DX005 (ip), vehicle: saline): 161 % of control
T/C (dose: 134.0 mg/kg/injection, schedule: Q04DX002 (ip), vehicle: sodium bicarbonate): 112 % of control
T/C [3]: 104 % of control
T/C (dose: 150.0 mg/kg/injection, schedule: Q01DX009 (ip), vehicle: sodium bicarbonate): 233 % of control and 260 % of control and 124 % of control
T/C (dose: 175.0 mg/kg/injection, schedule: Q01DX009 (ip), vehicle: sodium bicarbonate): 103 % of control
T/C (dose: 186.12 mg/kg/injection, schedule: Q01DX005 (ip), vehicle: saline): 164 % of control

CN(C)/N=N/c1nc[nH]c1C(N)=O
T/C (dose: 25.0 mg/kg/injection, schedule: Q01DX009 (ip), vehicle: distilled water + Tween-80): 112 % of control
T/C (dose: 50.0 mg/kg/injection, schedule: Q01DX009 (ip), vehicle: distilled water + Tween-80): 124 % of control
T/C (dose: 100.0 mg/kg/injection, schedule: Q01DX009 (ip), vehicle: distilled water + Tween-80): 166 % of control
T/C (dose: 200.0 mg/kg/injection, schedule: Q01DX009 (ip), vehicle: distilled water + Tween-80): 158 % of control and 178 % of control
T/C (dose: 400.0 mg/kg/injection, schedule: Q01DX009 (ip), vehicle: distilled water + Tween-80): 201 % of control and 123 % of control

CO[C@@]12[C@@H]3N[C@@H]3CN1C1=C(C(=O)C(N3CCCC3)=C(C)C1=O)[C@@H]2COC(N)=O
T/C (dose: 3.75 mg/kg/injection, schedule: Q01DX005 (ip), vehicle: saline with Tween-80): 122 % of control
T/C (dose: 10.4 mg/kg/injection, schedule: Q01DX005 (ip), vehicle: saline with Tween-80): 122 % of control
T/C (dose: 12.5 mg/kg/injection, schedule: Q01DX005 (ip), vehicle: saline with Tween-80): 117 % of control and 120 % of control
T/C (dose: 17.4 mg/kg/injection, schedule: Q01DX005 (ip), vehicle: saline with Tween-80): 113 % of control

COc1nc(C(Cl)(Cl)Cl)c(Cl)c(OC)c1Cl
T/C (dose: 50.0 mg/kg/injection, schedule: Q01DX005 (ip), vehicle: Klucel (hydroxypropylcellulose) (HPC)): 114 % of control
T/C (dose: 90.0 mg/kg/injection, schedule: Q01DX005 (ip), vehicle: Klucel (hydroxypropylcellulose) (HPC)): 124 % of control

COc1cccc2c1C(=O)c1c(O)c3c(c(O)c1C2=O)C[C@@](O)(C(=O)CO)C[C@@H]3OC1CC(N2CCOCC2C#N)C(O)C(C)O1 (stereo not given in full)
T/C (dose: 9.38 micrograms/kg/injection, schedule: Q04DX003 (ip), vehicle: saline with Tween-80): 173 % of control and 175 % of control
T/C (dose: 15.0 micrograms/kg/injection, schedule: Q04DX003 (iv), vehicle: saline + alcohol): 107 % of control
T/C (dose: 22.0 micrograms/kg/injection, schedule: Q04DX003 (iv), vehicle: saline + alcohol): 99 % of control
T/C (dose: 33.0 micrograms/kg/injection, schedule: Q04DX003 (iv), vehicle: saline + alcohol): 88 % of control
T/C (dose: 37.5 micrograms/kg/injection, schedule: Q04DX003 (ip), vehicle: saline with Tween-80): 160 % of control

NCCCNCCCCNC(=O)C(O)NC(=O)CCCCCCN=C(N)N (stereo not given)
T/C (dose: 4.4 mg/kg/injection, schedule: Q01DX009 (ip), vehicle: other): 195 % of control
T/C (dose: 4.4 mg/kg/injection, schedule: Q01DX009 (ip), vehicle: saline): 193 % of control
T/C (dose: 6.7 mg/kg/injection, schedule: Q01DX009 (ip), vehicle: other): 195 % of control
T/C (dose: 6.7 mg/kg/injection, schedule: Q01DX009 (ip), vehicle: saline): 198 % of control
T/C (dose: 10.0 mg/kg/injection, schedule: Q01DX009 (ip), vehicle: other): 205 % of control
T/C (dose: 10.0 mg/kg/injection, schedule: Q01DX009 (ip), vehicle: saline): 206 % of control
T/C (dose: 15.0 mg/kg/injection, schedule: Q01DX009 (ip), vehicle: other): 209 % of control
T/C (dose: 15.0 mg/kg/injection, schedule: Q01DX009 (ip), vehicle: saline): 212 % of control
T/C (dose: 22.5 mg/kg/injection, schedule: Q01DX009 (ip), vehicle: other): 162 % of control
T/C (dose: 22.5 mg/kg/injection, schedule: Q01DX009 (ip), vehicle: saline): 219 % of control

COc1cccc2c1C(=O)c1c(O)c3c(c(O)c1C2=O)CC(O)(C(=O)CO)CC3OC1CC(N)C(I)C(C)O1 (stereo not given)
T/C (dose: 2.2 mg/kg/injection, schedule: Q01DX001 (ip), vehicle: saline): 98 % of control
T/C (dose: 3.3 mg/kg/injection, schedule: Q01DX001 (ip), vehicle: saline): 99 % of control
T/C (dose: 5.0 mg/kg/injection, schedule: Q01DX001 (ip), vehicle: saline): 108 % of control and 117 % of control
T/C (dose: 7.5 mg/kg/injection, schedule: Q01DX001 (ip), vehicle: saline): 118 % of control
T/C (dose: 25.2 mg/kg/injection, schedule: Q01DX001 (ip), vehicle: saline): 150 % of control

Nc1nc(F)nc2c1ncn2C1OC(COP(=O)(O)O)C(O)C1O (stereo not given)
T/C (dose: 60.0 mg/kg/injection, schedule: Q01DX009 (ip), vehicle: saline): 219 % of control and 239 % of control
T/C (dose: 90.0 mg/kg/injection, schedule: Q01DX009 (ip), vehicle: saline): 309 % of control and 429 % of control
T/C (dose: 134.0 mg/kg/injection, schedule: Q01DX009 (ip), vehicle: saline): 309 % of control and 445 % of control
T/C (dose: 200.0 mg/kg/injection, schedule: Q01DX009 (ip), vehicle: saline): 309 % of control and 394 % of control
T/C (dose: 250.0 mg/kg/injection, schedule: Q01DX009 (ip), vehicle: saline): 108 % of control

O=C(O)CCCc1ccc(N(CCCl)CCCl)cc1
T/C (dose: 1.25 mg/kg/injection, schedule: Q01DX005 (ip), vehicle: saline with Tween-80): 120 % of control
T/C (dose: 10.0 mg/kg/injection, schedule: Q01DX005 (ip), vehicle: saline with Tween-80): 205 % of control

O=NNc1cnccn1
T/C (dose: 11.0 mg/kg/injection, schedule: Q01DX009 (ip), vehicle: water): 165 % of control and 171 % of control
T/C (dose: 17.0 mg/kg/injection, schedule: Q01DX009 (ip), vehicle: water): 201 % of control and 206 % of control
T/C (dose: 25.0 mg/kg/injection, schedule: Q01DX009 (ip), vehicle: water): 240 % of control and 246 % of control
T/C (dose: 37.5 mg/kg/injection, schedule: Q01DX009 (ip), vehicle: water): 277 % of control and 313 % of control
T/C (dose: 56.0 mg/kg/injection, schedule: Q01DX009 (ip), vehicle: water): 107 % of control and 117 % of control

COc1ccc2[nH]c3ccc4cc[n+](CCN5CCC(C6CCN(CC[n+]7ccc8ccc9[nH]c%10ccc(OC)cc%10c9c8c7)CC6)CC5)cc4c3c2c1
T/C (dose: 2.0 mg/kg/injection, schedule: Q01DX005 (ip), vehicle: water): 119 % of control
T/C (dose: 4.0 mg/kg/injection, schedule: Q01DX005 (ip), vehicle: water): 123 % of control
T/C (dose: 8.0 mg/kg/injection, schedule: Q01DX005 (ip), vehicle: water): 152 % of control
T/C (dose: 16.0 mg/kg/injection, schedule: Q01DX005 (ip), vehicle: water): 158 % of control
T/C (dose: 32.0 mg/kg/injection, schedule: Q01DX005 (ip), vehicle: water): 163 % of control

NCCCN=c1ccc2c3c1c(O)c1c(O)ccc(=O)c1c3[nH]n2CCNCCO
T/C (dose: 25.0 mg/kg/injection, schedule: Q01DX001 (ip), vehicle: water): 107 % of control
